Measurements taken from patent publication US20240116985A1, “STAPLED PEPTIDES AND METHODS THEREOF” (priority 2020, published 2024).

Assays:
[1] = target: T1, beta-catenin/TCF4 engagement (Homo sapiens, UniProt P35222); assay: Nano-BRET target engagement assay (B-cat-Halo & TCF4-Luc in HEK293 cells); format: cell-based; conditions: read-out: NanoBRET Abs IC50
T1 construct: expressed in transfected cells; host or cells: HEK293
T1 sequence (P35222 1-781): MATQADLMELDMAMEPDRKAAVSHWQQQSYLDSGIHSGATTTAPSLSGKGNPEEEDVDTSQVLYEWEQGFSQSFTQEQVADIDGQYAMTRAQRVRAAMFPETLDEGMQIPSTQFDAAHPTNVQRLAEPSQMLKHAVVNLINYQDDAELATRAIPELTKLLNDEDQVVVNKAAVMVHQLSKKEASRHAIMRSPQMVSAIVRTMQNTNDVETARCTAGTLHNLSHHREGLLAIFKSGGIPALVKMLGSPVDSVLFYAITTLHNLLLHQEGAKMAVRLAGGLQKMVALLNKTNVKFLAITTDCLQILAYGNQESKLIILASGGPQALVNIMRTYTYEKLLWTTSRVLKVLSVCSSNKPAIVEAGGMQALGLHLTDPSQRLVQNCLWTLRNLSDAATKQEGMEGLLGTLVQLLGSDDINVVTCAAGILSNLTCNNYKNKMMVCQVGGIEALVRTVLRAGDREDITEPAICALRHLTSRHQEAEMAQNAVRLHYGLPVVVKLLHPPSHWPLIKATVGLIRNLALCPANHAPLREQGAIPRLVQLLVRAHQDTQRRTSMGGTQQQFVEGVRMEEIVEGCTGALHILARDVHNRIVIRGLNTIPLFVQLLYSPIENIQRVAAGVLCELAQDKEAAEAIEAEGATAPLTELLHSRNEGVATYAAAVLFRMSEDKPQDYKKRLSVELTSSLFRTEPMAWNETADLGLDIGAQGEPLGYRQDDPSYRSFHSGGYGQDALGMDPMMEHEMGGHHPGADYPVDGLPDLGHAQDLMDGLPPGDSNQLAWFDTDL

[2] = target: T2, full-length beta-Catenin (Uniprot ID P35222) (Homo sapiens, UniProt P35222); assay: Fluorescence polarization IC50 (beta-catenin / 5FAM-TCF4 10-53 competition); format: binding; conditions: fluorescence polarization; read-out: beta-Catenin FP IC50
T2 construct: 10 nM full-length beta-Catenin (Uniprot ID P35222)
T2 sequence (P35222 1-781): T1 sequence (P35222 1-781)

IC50 [1] | IC50 [2] | Compound
10 µM | 9 nM | CC(=O)N1CCC[C@]12CC=CCCCC1(CCCC=CCCCOC(=O)N3CC[C@@](C(=O)N[C@@H](Cc4ccsc4)C(=O)N[C@@H](Cc4csc5ccccc45)C(=O)N[C@@H](CC(N)=O)C(N)=O)(C3)NC(=O)[C@H](C)NC(=O)[C@H](Cc3ccccc3)NC(=O)[C@H](C)NC(=O)[C@H](C)NC(=O)[C@H](Cc3cccc(C(=O)O)c3)NC(=O)[C@H](CC(=O)O)NC1=O)NC(=O)[C@H](CC(C)(C)C)NC(=O)[C@H](CC(=O)O)NC2=O (stereo partly drawn) [I-2042, Ac-PL3-Asp-Npg-B5-Asp-3COOHF-Ala-Ala-Phe-Ala-PyrS2-3Thi-BztA-Asn-NH2]
13.5 µM | 5 nM | CC(=O)N1CCC[C@]12CC=CCCCC1(CCCC=CCCCOC(=O)N3CC[C@@](C(=O)N[C@@H](Cc4ccsc4)C(=O)N[C@@H](Cc4csc5ccccc45)C(=O)N[C@@H](CC(N)=O)C(N)=O)(C3)NC(=O)[C@H](CO)NC(=O)[C@H](Cc3ccccc3)NC(=O)[C@H](C)NC(=O)[C@H](C)NC(=O)[C@H](Cc3cccc(C(=O)O)c3)NC(=O)[C@H](CC(=O)O)NC1=O)NC(=O)[C@H](CC(C)(C)C)NC(=O)[C@H](CC(=O)O)NC2=O (stereo partly drawn) [I-2045, Ac-PL3-Asp-Npg-B5-Asp-3COOHF-Ala-Ala-Phe-Ser-PyrS2-3Thi-BztA-Asn-NH2]
4.5 µM | 5 nM | CC(=O)N1CCC[C@]12CC=CCCCC1(CCCC=CCCCOC(=O)N3CC[C@@](C(=O)N[C@@H](Cc4ccsc4)C(=O)N[C@@H](Cc4csc5ccccc45)C(=O)N[C@@H](C)C(N)=O)(C3)NC(=O)[C@H](CC(C)C)NC(=O)[C@H](Cc3ccccc3)NC(=O)[C@H](C)NC(=O)[C@H](CC(N)=O)NC(=O)[C@H](Cc3cccc(C(=O)O)c3)NC(=O)[C@H](CC(=O)O)NC1=O)NC(=O)[C@H](CC(C)(C)C)NC(=O)[C@H](CC(=O)O)NC2=O (stereo partly drawn) [I-2049, Ac-PL3-Asp-Npg-B5-Asp-3COOHF-Asn-Ala-Phe-Leu-PyrS2-3Thi-BztA-Ala-NH2]
4.9 µM | 9 nM | CC(=O)N1CCC[C@]12CC=CCCCC1(CCCC=CCCCOC(=O)N3CC[C@@](C(=O)N[C@@H](Cc4ccsc4)C(=O)N[C@@H](Cc4csc5ccccc45)C(=O)N[C@@H](C)C(N)=O)(C3)NC(=O)[C@H](CC(C)C)NC(=O)[C@H](Cc3ccccc3)NC(=O)[C@H](C)NC(=O)[C@H](CO)NC(=O)[C@H](Cc3cccc(C(=O)O)c3)NC(=O)[C@H](CC(=O)O)NC1=O)NC(=O)[C@H](CC(C)(C)C)NC(=O)[C@H](CC(=O)O)NC2=O (stereo partly drawn) [I-2050, Ac-PL3-Asp-Npg-B5-Asp-3COOHF-Ser-Ala-Phe-Leu-PyrS2-3Thi-BztA-Ala-NH2]
8.3 µM | 16 nM | CC(=O)N1CCC[C@]12CC=CCCCC1(CCCC=CCCCOC(=O)N3CC[C@@](C(=O)N[C@@H](Cc4ccsc4)C(=O)N[C@@H](Cc4csc5ccccc45)C(=O)N[C@@H](C)C(N)=O)(C3)NC(=O)[C@H](CC(C)C)NC(=O)[C@H](Cc3ccccc3)NC(=O)[C@H](C)NC(=O)[C@H]([C@@H](C)O)NC(=O)[C@H](Cc3cccc(C(=O)O)c3)NC(=O)[C@H](CC(=O)O)NC1=O)NC(=O)[C@H](CC(C)(C)C)NC(=O)[C@H](CC(=O)O)NC2=O (stereo partly drawn) [I-2051, Ac-PL3-Asp-Npg-B5-Asp-3COOHF-Thr-Ala-Phe-Leu-PyrS2-3Thi-BztA-Ala-NH2]
6 µM | 12 nM | CC(=O)N1CCC[C@]12CC=CCCCC1(CCCC=CCCCOC(=O)N3CC[C@@](C(=O)N[C@@H](Cc4ccsc4)C(=O)N[C@@H](Cc4csc5ccccc45)C(=O)N[C@@H](C)C(N)=O)(C3)NC(=O)[C@H](Cc3ccccc3)NC(=O)[C@H](Cc3ccccc3)NC(=O)[C@H](C)NC(=O)[C@H](CCC(N)=O)NC(=O)[C@H](Cc3cccc(C(=O)O)c3)NC(=O)[C@H](CC(=O)O)NC1=O)NC(=O)[C@H](CC(C)(C)C)NC(=O)[C@H](CC(=O)O)NC2=O (stereo partly drawn) [I-2052, Ac-PL3-Asp-Npg-B5-Asp-3COOHF-Gln-Ala-Phe-Phe-PyrS2-3Thi-BztA-Ala-NH2]
5 µM | 11 nM | CC(=O)N1CCC[C@]12CC=CCCCC1(CCCC=CCCCOC(=O)N3CC[C@@](C(=O)N[C@@H](Cc4ccsc4)C(=O)N[C@@H](Cc4csc5ccccc45)C(=O)N[C@@H](C)C(N)=O)(C3)NC(=O)[C@H](C)NC(=O)[C@H](Cc3ccccc3)NC(=O)[C@H](C)NC(=O)[C@H](CCC(N)=O)NC(=O)[C@H](Cc3cccc(C(=O)O)c3)NC(=O)[C@H](CC(=O)O)NC1=O)NC(=O)[C@H](CC(C)(C)C)NC(=O)[C@H](CC(=O)O)NC2=O (stereo partly drawn) [I-2053, Ac-PL3-Asp-Npg-B5-Asp-3COOHF-Gln-Ala-Phe-Ala-PyrS2-3Thi-BztA-Ala-NH2]
10.5 µM | 13 nM | CC(=O)N1CCC[C@]12CC=CCCCC1(CCCC=CCCCOC(=O)N3CC[C@@](C(=O)N[C@@H](Cc4ccsc4)C(=O)N[C@@H](Cc4csc5ccccc45)C(=O)N[C@H](C(N)=O)C(C)C)(C3)NC(=O)[C@H](CC(C)C)NC(=O)[C@H](Cc3ccccc3)NC(=O)[C@H](C)NC(=O)[C@H](CCC(N)=O)NC(=O)[C@H](Cc3cccc(C(=O)O)c3)NC(=O)[C@H](CC(=O)O)NC1=O)NC(=O)[C@H](CC(C)(C)C)NC(=O)[C@H](CC(=O)O)NC2=O (stereo partly drawn) [I-2055, Ac-PL3-Asp-Npg-B5-Asp-3COOHF-Gln-Ala-Phe-Leu-PyrS2-3Thi-BztA-Val-NH2]
6.5 µM | 16 nM | CC(=O)N1CCC[C@]12CC=CCCCC1(CCCC=CCCCOC(=O)N3CC[C@@](C(=O)N[C@@H](Cc4ccsc4)C(=O)N[C@@H](Cc4csc5ccccc45)C(=O)N[C@@H](CC(C)C)C(N)=O)(C3)NC(=O)[C@H](CC(C)C)NC(=O)[C@H](Cc3ccccc3)NC(=O)[C@H](C)NC(=O)[C@H](CCC(N)=O)NC(=O)[C@H](Cc3cccc(C(=O)O)c3)NC(=O)[C@H](CC(=O)O)NC1=O)NC(=O)[C@H](CC(C)(C)C)NC(=O)[C@H](CC(=O)O)NC2=O (stereo partly drawn) [I-2056, Ac-PL3-Asp-Npg-B5-Asp-3COOHF-Gln-Ala-Phe-Leu-PyrS2-3Thi-BztA-Leu-NH2]
3.9 µM | 10 nM | CC(=O)N1CCC[C@]12CC=CCCCC1(CCCC=CCCCOC(=O)N3CC[C@@](C(=O)N[C@@H](Cc4ccccc4C(F)(F)F)C(=O)N[C@@H](Cc4csc5ccccc45)C(=O)N[C@@H](C)C(N)=O)(C3)NC(=O)[C@H](CC(C)C)NC(=O)[C@H](Cc3ccccc3)NC(=O)[C@H](C)NC(=O)[C@H](CC(N)=O)NC(=O)[C@H](Cc3cccc(C(=O)O)c3)NC(=O)[C@H](CC(=O)O)NC1=O)NC(=O)[C@H](CC(C)(C)C)NC(=O)[C@H](CC(=O)O)NC2=O (stereo partly drawn) [I-2058, Ac-PL3-Asp-Npg-B5-Asp-3COOHF-Asn-Ala-Phe-Leu-PyrS2-2F3MeF-BztA-Ala-NH2]
4.8 µM | 38 nM | CC(=O)N1CCC[C@]12CC=CCCCC1(CCCC=CCCCOC(=O)N3CC[C@@](C(=O)N[C@@H](Cc4ccccc4C(F)(F)F)C(=O)N[C@@H](Cc4csc5ccccc45)C(=O)N[C@@H](C)C(N)=O)(C3)NC(=O)[C@H](CC(C)C)NC(=O)[C@H](Cc3ccccc3)NC(=O)[C@H](C)NC(=O)[C@H](CO)NC(=O)[C@H](Cc3cccc(C(=O)O)c3)NC(=O)[C@H](CC(=O)O)NC1=O)NC(=O)[C@H](CC(C)(C)C)NC(=O)[C@H](CC(=O)O)NC2=O (stereo partly drawn) [I-2059, Ac-PL3-Asp-Npg-B5-Asp-3COOHF-Ser-Ala-Phe-Leu-PyrS2-2F3MeF-BztA-Ala-NH2]
9.6 µM | 56 nM | CC(=O)N1CCC[C@]12CC=CCCCC1(CCCC=CCCCOC(=O)N3CC[C@@](C(=O)N[C@@H](Cc4ccccc4C(F)(F)F)C(=O)N[C@@H](Cc4csc5ccccc45)C(=O)N[C@@H](C)C(N)=O)(C3)NC(=O)[C@H](CC(C)C)NC(=O)[C@H](Cc3ccccc3)NC(=O)[C@H](C)NC(=O)[C@H]([C@@H](C)O)NC(=O)[C@H](Cc3cccc(C(=O)O)c3)NC(=O)[C@H](CC(=O)O)NC1=O)NC(=O)[C@H](CC(C)(C)C)NC(=O)[C@H](CC(=O)O)NC2=O (stereo partly drawn) [I-2060, Ac-PL3-Asp-Npg-B5-Asp-3COOHF-Thr-Ala-Phe-Leu-PyrS2-2F3MeF-BztA-Ala-NH2]

Compound | IC50 [1] | IC50 [2]
CC(=O)N1CCC[C@]12CC=CCCCC1(CCCC=CCCCOC(=O)N3CC[C@@](C(=O)N[C@@H](Cc4ccsc4)C(=O)N[C@@H](Cc4csc5ccccc45)C(=O)N[C@@H](CC(N)=O)C(=O)N[C@@H](C)C(=O)N[C@@H](C)C(=O)N[C@@H](C)C(N)=O)(C3)NC(=O)[C@H](CC(C)C)NC(=O)[C@H](Cc3ccccc3)NC(=O)[C@H](C)NC(=O)[C@H](C)NC(=O)[C@H](Cc3cccc(C(=O)O)c3)NC(=O)[C@H](CC(=O)O)NC1=O)NC(=O)[C@H](CC(C)(C)C)NC(=O)[C@H](CC(=O)O)NC2=O (stereo partly drawn) [I-2046, Ac-PL3-Asp-Npg-B5-Asp-3COOHF-Ala-Ala-Phe-Leu-PyrS2-3Thi-BztA-Asn-Ala-Ala-Ala-NH2] | 2.9 µM | 12 nM
